This note sets out measurements from patent US7223766B2, “Bi-cyclic pyrimidine inhibitors of TGFβ” (Scios, Inc., priority 2003, dated 2007).

In general, IC50 refers to the concentration needed to halve the response being measured. High values mean weaker potency in that assay, low ones greater potency in that assay.

The experiment deals with T1, TGF R1 kinase (Homo sapiens, UniProt P36897).
T1 sequence (P36897 34-503): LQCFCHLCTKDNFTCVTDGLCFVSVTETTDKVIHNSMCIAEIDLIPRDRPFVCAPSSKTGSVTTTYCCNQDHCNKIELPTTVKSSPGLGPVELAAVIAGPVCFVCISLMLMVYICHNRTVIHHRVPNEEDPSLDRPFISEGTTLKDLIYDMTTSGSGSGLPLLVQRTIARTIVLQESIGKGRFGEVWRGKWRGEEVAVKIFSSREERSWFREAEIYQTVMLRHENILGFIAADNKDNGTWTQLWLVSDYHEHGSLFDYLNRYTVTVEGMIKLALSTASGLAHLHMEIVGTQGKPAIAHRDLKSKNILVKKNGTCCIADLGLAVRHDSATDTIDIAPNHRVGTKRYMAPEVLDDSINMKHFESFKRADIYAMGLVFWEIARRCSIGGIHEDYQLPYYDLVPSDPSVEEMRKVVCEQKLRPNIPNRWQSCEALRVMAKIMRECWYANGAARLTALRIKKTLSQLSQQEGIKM
The experiment can be described thus: TGF-β inhibition assay: phosphorylation of the substrate casein by TGF R1 kinase. Format: biochemical. The following applies: table names no assay; casein assay of Example 2: 2.5 μM ATP, 100 μM casein, 6.4 nM TGF R1 kinase. The procedure: Invention compounds were tested for their abilities to inhibit the phosphorylation of the substrate casein. The assay was conducted as follows: Compound dilutions and reagents were prepared fresh daily. Compounds were diluted from DMSO stock solutions to 2 times the desired assay concentration, keeping final DMSO concentration in the assay less than or equal to 1%. TGF RI kinase was diluted to 4 times the desired assay concentration in buffer and DTT. ATP and casein were diluted into 4× reaction buffer, and gamma-^32P-ATP was added at 50 μCi/mL.
The assay was performed by adding 10 μl of the enzyme to 20 μl of the compound solution. The reaction was initiated by the addition of 10 μl of the casein/ATP mix. Final assay conditions included 2.5 μM ATP, 100 μM casein, 6.4 nM TGF R1 kinase, and […] in 20 mM Tris buffer, pH 7.5. The reactions were incubated at room temperature for 45 minutes. The reactions were then stopped by transferring 23 μl of reaction mixture onto a phosphocellulose 96-well filter plate, which had been pre-wetted with 15 μl of 0.25M H3PO4 per well. After 5 minutes, the wells were washed 4× with 75 mM H3PO4 and once with 95% ethanol. The plate was dried, scintillation cocktail was added to each well, and the wells were counted in a Packard TopCount microplate scintillation counter. The ability of a compound to inhibit the enzyme was determined by comparing the counts obtained in the presence of the compound to those of the positive control (in the absence of compound) and the negative control (in the absence of enzyme).
In both of the assays referenced above, IC50 values can be determined with curve-fitting plots available with common software packages. Approximate IC50 values can be calculated using formula: IC50 (app)=A×i/(1−A) where A=fractional activity and i=total inhibitor concentration.
As for `c1ccc(-c2nc(Nc3ccncc3)c3cc[nH]c3n2)cc1` [Compound 2, 4-(4-aminopyridyl)-2-phenyl pyrollo[2,3d]pyrimidine], the midpoint of inhibition, the IC50, lay at 9400 nM.
`Cc1noc2nc(-c3cccc(Cl)c3)nc(Nc3ccncc3)c12` [Compound 3] yielded an IC50 of 780 nM.
The value for `Cc1noc2nc(-c3cc(Br)ccc3F)nc(Nc3ccncc3)c12` [Compound 6] was 270 nM; that for `CCc1noc2nc(-c3cccc(Cl)c3)nc(Nc3ccncc3)c12` [Compound 7] was 5070 nM.
For `Cc1noc2nc(-c3cc(Cl)ccc3F)nc(Nc3ccncc3)c12` [Compound 8] the value was 267 nM; for `Cc1noc2nc(-c3cccc(I)c3)nc(Nc3ccncc3)c12` [Compound 10], 2440 nM; for `CCc1noc2nc(-c3cc(Cl)ccc3F)nc(Nc3ccncc3)c12` [Compound 11], 1350 nM.
For `Cc1noc2nc(-c3ccccc3F)nc(Nc3ccncc3)c12` [Compound 12] the value was 1380 nM; for `Cc1noc2nc(-c3ccccc3Cl)nc(Nc3ccncc3)c12` [Compound 14], 12800 nM; for `Cc1noc2nc(-c3cccc(Br)c3)nc(Nc3ccncc3)c12` [Compound 15], 1020 nM.
For `Cc1noc2nc(-c3ccc(Cl)cc3)nc(Nc3ccncc3)c12` [Compound 17], half-maximal inhibition (IC50) was put at 4650 nM.
The value for `Cc1cnccc1Nc1nc(-c2cc(Cl)ccc2F)nc2c1CCC2` [Compound 20] was 93 nM; that for `NC(=O)c1cnccc1Nc1nc(-c2cc(Cl)ccc2F)nc2c1CCC2` [Compound 21] was 53 nM; that for `Cc1cnccc1Nc1nc(-c2cc(Cl)ccc2F)nc2c1CNCC2` [Compound 22] was 6270 nM.
The compound `Cc1cnccc1Nc1nc(-c2cc(Cl)ccc2F)nc2c1CCNC2` [Compound 23] returned an IC50 of 1180 nM.
The value for `Cc1cnccc1Nc1nc(-c2cc(Cl)ccc2F)nc2c1CN(Cc1ccccc1)CC2` [Compound 30] was 16100 nM; that for `CCOC(=O)c1cnccc1Nc1nc(-c2cc(Cl)ccc2F)nc2c1CCC2` [Compound 32] was 6500 nM; that for `Cc1cnccc1Nc1nc(-c2cc(Cl)ccc2F)nc2c1COC2` [Compound 33, [2-(5-Chloro-2-fluorophenyl)-5,7-dihydrofuro[3,4-d]pyrimidin-4-yl]-(3-methyl-pyridin-4-yl)-amine] was 3100 nM.
`NC(=O)c1cnccc1Nc1nc(-c2cc(Cl)ccc2F)nc2c1COC2` [Compound 34, 4-[2-(5-Chloro-2-fluoro-phenyl)-5,7-dihydro-furo[3,4-d]pyrimidin-4-ylamino]-nicotinic amide] registered an IC50 of 2250 nM.
Consider `Fc1ccc(Cl)cc1-c1nc2c(c(Nc3ccncc3C(F)(F)F)n1)CCC2` [Compound 36], for which the IC50 was found to be 170 nM.
Compound `O=C(c1cnccc1Nc1nc(-c2cc(Cl)ccc2F)nc2c1CCC2)N1CCCC1` [Compound 37] returned an IC50 of 2240 nM.
The value for `Cc1cnccc1Nc1nc(-c2cc(Cl)ccc2F)nc2c1CCCC2` [Compound 38, [2-(5-Chloro-2-fluorophenyl)-5,6,7,8-tetrahydroquinazolin-4-yl]-(3-methylpyridin-4-yl)-amine] was 252 nM; that for `CNC(=O)c1cnccc1Nc1nc(-c2cc(Cl)ccc2F)nc2c1CCCC2` [Compound 40] was 50.1 nM; that for `O=C(NC1CC1)c1cnccc1Nc1nc(-c2cc(Cl)ccc2F)nc2c1CCC2` [Compound 41] was 1350 nM.
With `O=C(NCC1CC1)c1cnccc1Nc1nc(-c2cc(Cl)ccc2F)nc2c1CCC2` [Compound 42], half-maximal inhibition (IC50) required 1330 nM.
For `Cc1cnccc1Nc1nc(-c2cc(Cl)ccc2F)nc2c1C(C)CC2` (centres unmarked) [Compound 43, [2-(5-Chloro-2-fluorophenyl)-5-methyl-6,7-dihydro-5H-cyclopentapyrimidin-4-yl]-(3-methyl-pyridin-4-yl)-amine] the value was 104 nM.
`CNC(=O)c1cnccc1Nc1nc(-c2cc(Cl)ccc2F)nc2c1OCC2` [Compound 44, 4-[2-(5-Chloro-2-fluorophenyl)-6,7-dihydrofuro[3,2-d]pyrimidin-4-ylamino]-N-methyl nicotinamide]: inhibition was half-maximal at 148 nM (IC50).
`O=C(NC1CC1)c1cnccc1Nc1nc(-c2cc(Cl)ccc2F)nc2c1CCCC2` [Compound 45, 4-[2-(5-Chloro-2-fluorophenyl)-5,6,7,8-tetrahydroquinazolin-4-ylamino]-N-cyclopropyl nicotinamide] gave an IC50 of 683 nM.
The value for `CC1CCc2nc(-c3cc(Cl)ccc3F)nc(Nc3ccncc3C(N)=O)c21` (centres unmarked) [Compound 46] was 13 nM; that for `CNC(=O)c1cnccc1Nc1nc(-c2cc(Cl)ccc2F)nc2c1C(C)CC2` (centres unmarked) [Compound 47, 4-[2-(5-Chloro-2-fluorophenyl)-5-methyl-6,7-dihydro-5H-cyclopentapyrimidin-4-ylamino]-N-methyl-nicotinamide] was 14.5 nM; that for `CCOC(=O)c1cnccc1Nc1nc(-c2cc(Cl)ccc2F)nc2c1C(C)CC2` (centres unmarked) [Compound 48, 4-[2-(5-Chloro-2-fluoro-phenyl)-5-methyl-6,7-dihydro-5H-cyclopentapyrimidin-4-ylamino]-nicotinic acid ethyl ester] was 262 nM.
The value for `CC1CCc2nc(-c3cc(Cl)ccc3F)nc(Nc3ccncc3C(=O)O)c21` (centres unmarked) [Compound 49, 4-[2-(5-Chloro-2-fluorophenyl)-5-methyl-6,7-dihydro-5H-cyclopentapyrimidin-4-ylamino]-nicotinic acid] was 85.3 nM.
The value for `O=C(O)c1cnccc1Nc1nc(-c2cc(Cl)ccc2F)nc2c1CCCC2` [Compound 50, 4-[2-(5-Chloro-2-fluorophenyl)-5,6,7,8-tetrahydroquinazolin-4-ylamino]-nicotinic acid] was 4080 nM; that for `C[C@H](O)CNC(=O)c1cnccc1Nc1nc(-c2cc(Cl)ccc2F)nc2c1CCC2` [Compound 52] was 238 nM; that for `C[C@H](O)CNC(=O)c1cnccc1Nc1nc(-c2cc(Cl)ccc2F)nc2c1CCC2` [Compound 53] was 417 nM.
In the case of `O=C(NO)c1cnccc1Nc1nc(-c2cc(Cl)ccc2F)nc2c1CCC2` [Compound 54], the half-inhibitory concentration (IC50) worked out at 486 nM.
`C[C@@H](O)CNC(=O)c1cnccc1Nc1nc(-c2cc(Cl)ccc2F)nc2c1CCC2` [Compound 55] displayed an IC50 of 639 nM.
On to `CNCCNC(=O)c1cnccc1Nc1nc(-c2cc(Cl)ccc2F)nc2c1CCC2` [Compound 56], for which the IC50 was 365 nM.
The value for `C[C@H](O)CNC(=O)c1cnccc1Nc1nc(-c2cc(Cl)ccc2F)nc2c1CCCC2` [Compound 57] was 436 nM; that for `NNC(=O)c1cnccc1Nc1nc(-c2cc(Cl)ccc2F)nc2c1CCC2` [Compound 58] was 62.6 nM.
For the compound `CCN(CC)CCNC(=O)c1cnccc1Nc1nc(-c2cc(Cl)ccc2F)nc2c1CCCC2` [Compound 59], it took 77.9 nM to reach half-maximal inhibition (IC50).
For `Cc1cnccc1Nc1nc(-c2cc(Cl)ccc2F)nc2c1CC(C)(C)C2` [Compound 60, [2-(5-Chloro-2-fluoro-phenyl)-6,6-dimethyl-6.7-dihydro-5H-cyclopentapyrimidin-4-yl]-(3-methyl-pyridin-4-yl)-amine] the value was 2420 nM; for `CC1(C)Cc2nc(-c3cc(Cl)ccc3F)nc(Nc3ccncc3C(F)(F)F)c2C1` [Compound 61], 6250 nM; for `CC1(C)Cc2nc(-c3cc(Cl)ccc3F)nc(Nc3ccncc3C(N)=O)c2C1` [Compound 62, 4-[2-(5-Chloro-2-fluoro-phenyl)-6,6-dimethyl-6,7-dihydro-5H-cyclopentapyrimidin-4-ylamino]-nicotinamide], 205 nM.
The value for `CNC(=O)c1cnccc1Nc1nc(-c2cc(Cl)ccc2F)nc2c1CC(C)(C)C2` [Compound 63] was 102 nM.
As for `C[C@@H](O)CNC(=O)c1cnccc1Nc1nc(-c2cc(Cl)ccc2F)nc2c1CC(C)(C)C2` [Compound 64], the IC50 stood at 1810 nM.
The value for `CC1(C)Cc2nc(-c3cc(Cl)ccc3F)nc(Nc3ccncc3C(=O)NC[C@H](O)CO)c2C1` [Compound 65] was 2790 nM; that for `CNCCNC(=O)c1cnccc1Nc1nc(-c2cc(Cl)ccc2F)nc2c1CC(C)(C)C2` [Compound 66] was 1250 nM.
The value for `COC(=O)c1cnccc1Nc1nc(-c2ccccc2)nc2c1CCC2` [Compound 67] was 8850 nM; that for `CNC(=O)c1cnccc1Nc1nc(-c2ccccc2)nc2c1CCC2` [Compound 68] was 289 nM.
